Data reported in paper PMC9227171 (Life, 2022).
Several values for one entry are separate records, joined by “and”; a condition that tells them apart may be missing. Identical values can stand only once.

Columns and labels:
[1] = tested on: protein synthesis in Vero E6 cells; assay: Protein synthesis in cultured cells: puromycin pulse labeling and immunoblotting; format: cell-based, African green monkey
Description: Prior to the experiment, Vero E6 cells were seeded at 30,000 cells per cm^2 in 6-well plates in 5% FBS-EMEM. […] Control experiments were conducted in the absence and presence of cycloheximide (1–150 μM) or DMSO. Following incubation with puromycin for 10 min, the medium was quickly removed and cells washed with warm PBS and allowed to recover in drug-free 5% FBS-EMEM for 30 min. Cell pellets collected by trypsinization and centrifugation were stored at −80 °C while awaiting protein preparation and immunoblotting as described below.
Cell lysates were prepared in RIPA (radio-immunoprecipitation) buffer (Sigma; R0278) containing protease inhibitors (Sigma; P8340). Protein concentrations were determined via the Pierce^TM bicinconinic acid (BCA) assay (Thermo Fisher Scientific, Waltham, MA, USA) using bovine serum albumin as a standard. All procedures were performed in accordance with protocols recommended by the manufacturers. For immunoblotting, 8 μg of protein was combined with Laemmli buffer containing 10% β-mercaptoethanol, heated at 95 °C for 5 min and loaded on 8–16% Mini-PROTEAN® TGX™ precast protein gels. Samples were resolved via electrophoresis in Tris-Gly-SDS buffer and transferred to nitrocellulose membranes in Tris-Gly buffer containing 20% methanol at 4–6 V/cm^2 for one hour. Membranes were blocked in 10 mM sodium phosphate buffer containing 150 mM NaCl (pH 7.8), 5% milk and 0.1% TWEEN20 (PBST) at room temperature for at least one hour, then incubated overnight with primary anti-puromycin antibodies (TFS; MABE343 mouse monoclonal antibodies clone 12D10; 1:25,000) at 4 °C. […]
For β-actin staining, the same membranes used for puromycin immunostaining were washed four times for five min with 20 mM Tris-buffered saline containing 500 mM sodium chloride (pH 7.5) and 0.1% TWEEN20 (TBST) and stripped by two rounds of 20- and 10-min washes at 50 °C in glycine buffer (pH 2.2) containing 0.1% SDS (w/v) and 1% TWEEN20. […] The results were quantified with Image J 1.52a software using β-actin staining for each sample as an internal reference.

[2] = target: protein synthesis in rabbit reticulocyte lysates; assay: Inhibition of protein synthesis in rabbit reticulocyte lysates (luciferase mRNA, luminescence); format: biochemical; conditions: for EC50: luciferase mRNA, 30 °C, 90 min, read-out: EC50 (50% inhibitory concentration); for impact on protein synthesis: concentration range extending to 50 μM; for inhibition of translation: at 100 μM
Description: The dose–response change in chemoluminescense monitored in the presence of various concentrations of investigational drugs following addition of luciferin allows comparison across compounds.
Assay conditions were employed as recommended by the manufacturer. In summary, reactions (20 μL) contained 80% TNT Quick master mix, 20 µM methionine, and 40 ng/µL luciferase RNA (Promega; L4561) at the indicated concentration of test chemicals. Samples were incubated at 30 °C for 90 min and diluted ten-fold with PBS. An aliquot (2 μL) was mixed with 20 μL of luciferase assay reagent (Promega; E1500) and luminescence was measured with a Turner Designs Model TD-20/20 Luminometer. Depending on the compound evaluated, experiments were repeated two-four times with good agreement between the runs. […] The results are reported as average values including the mean and standard deviation wherever applicable.

HIV-1 = conditions: among low molecular weight ATA components ref 39, 43; cited from earlier work
[3] = target: SARS-CoV-2 RdRp (nsp12/7/8 complex) (Severe acute respiratory syndrome coronavirus 2, UniProt P0DTD1); assay: Inhibition of SARS-CoV-2 RdRp active complex (RNA extension assay); format: biochemical; conditions: RdRp-mediated RNA replication, 37 °C, 60 min, 1 μM RdRp complex
hCoV-OC43 = assay: Antiviral properties in hCoV-OC43 and VERO E6 cells (data not shown); format: cell-based; conditions: concentrations ≥200 μM
yeast 80S ribosomes = assay: Ligand–ribosome binding via fluorescence anisotropy
[4] = target: T1, human serum albumin (HSA) (Homo sapiens, UniProt P02768); assay: HSA binding energetics via isothermal titration calorimetry (ITC); conditions: for TΔS / ΔG / ΔH: pH 7.4
T1 construct: purchased Millipore Sigma A1887
T1 sequence (P02768 25-609): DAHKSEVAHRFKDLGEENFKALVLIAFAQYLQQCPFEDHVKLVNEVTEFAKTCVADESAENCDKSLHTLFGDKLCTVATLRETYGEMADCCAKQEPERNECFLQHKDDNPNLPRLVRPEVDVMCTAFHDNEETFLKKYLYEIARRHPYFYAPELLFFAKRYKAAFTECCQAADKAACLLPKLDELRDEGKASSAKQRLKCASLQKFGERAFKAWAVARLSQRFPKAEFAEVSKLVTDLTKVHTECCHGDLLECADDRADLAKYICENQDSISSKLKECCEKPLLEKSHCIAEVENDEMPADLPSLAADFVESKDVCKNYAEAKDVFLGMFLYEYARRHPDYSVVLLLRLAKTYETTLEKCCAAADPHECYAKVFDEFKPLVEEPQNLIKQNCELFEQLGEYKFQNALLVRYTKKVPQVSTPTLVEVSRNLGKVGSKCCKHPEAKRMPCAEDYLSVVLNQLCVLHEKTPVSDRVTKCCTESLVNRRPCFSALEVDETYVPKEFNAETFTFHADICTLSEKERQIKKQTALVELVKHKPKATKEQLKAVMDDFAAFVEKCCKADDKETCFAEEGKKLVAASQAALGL
Description: The resultant heats are integrated to yield a binding profile (bottom panel) that is fit via nonlinear least squares analysis to a single site model (red line).
The protein was prepared as described in Section 5.1 and dialyzed exhaustively against a buffer comprised of 10 mM sodium phosphate adjusted to pH 7.4. […] Each ITC experiment consisted of thirty consecutive 10.0 µL injections during which the reaction heat is monitored and integrated over a 5.0 min period under continuous stirring. The experimental protocol has been designed to ensure that there is a tenfold excess of ligand in the titration syringe relative to standard protein concentration in the sample cell. The resultant binding isotherms are generated by recording the integrated reaction heats normalized for ligand concentration versus the HSA:ligand ratio. A nonlinear least squares fit of the resultant profile to a single site binding model yields thermodynamic parameters for the HSA–ligand complex including the affinity (Ka), Gibbs free energy (ΔG), enthalpy (ΔH), and entropy (ΔS).

[5] = ITC, 25.0 °C, listed as Dichlorohexamer

In the case of `C[C@@H]1C[C@@H]([C@H](O)CC2CC(=O)NC(=O)C2)C(=O)[C@@H](C)C1` [Cycloheximide], the activity at 150 µM ([1]; Chlorocebus sabaeus, Vero C1008, 150 uM, read-out: % activity (anti-puromycin/b-actin densitometry)) is reported as -3.99%, the activity at 300 µM ([1]; Chlorocebus sabaeus, Vero C1008, 300 uM, read-out: % activity (anti-puromycin/b-actin densitometry)) is reported as -3.95% and the “concentration that inhibits protein synthesis” value ([1]; puromycin labeling) is reported as 1 µM. For the same molecule, the EC50 [2] was 0.106 µM.

For `O=C(O)c1cc(Cc2cc(C(c3ccc(O)c(C(=O)O)c3)c3ccc(O)c(C(=O)O)c3)cc(C(=O)O)c2O)ccc1O` [compound 2], the “activity against HIV-1” value (HIV-1) is listed as “most active”.

For `O=C(O)c1cc(Cc2cc(Cc3ccc(O)c(C(=O)O)c3)c(O)c(C(=O)O)c2)ccc1O` [compound 3], the “activity against HIV-1” value (HIV-1) is listed as “most active”.

For `O=C(O)c1cc(Cc2cc(Cc3cc(Cc4cc(Cl)c(O)c(C(=O)O)c4)c(O)c(C(=O)O)c3)cc(C(=O)O)c2O)cc(Cl)c1O` [compound 8], the IC50 [3] was 163 µM and ~163 µM and the “impact on protein synthesis” value [2] was “did not impact protein synthesis”.

For `O=C(O)c1cc(Cc2cc(Cc3cc(Cc4ccc(O)c(C(=O)O)c4)c(O)c(C(=O)O)c3)cc(C(=O)O)c2O)ccc1O` [compound 9], the IC50 [3] was 514 µM and ~514 µM and the “impact on protein synthesis” value [2] was “did not impact protein synthesis”.

For `O=C(O)c1cc(Cc2cc(Cc3cc(Cc4cc(Cc5cc(Cc6cc(Cl)c(O)c(C(=O)O)c6)c(O)c(C(=O)O)c5)c(O)c(C(=O)O)c4)cc(C(=O)O)c3O)cc(C(=O)O)c2O)cc(Cl)c1O` [compound 11], the antiviral properties (hCoV-OC43) was “modest activity”, the Kd (yeast 80S ribosomes; 25 °C, fluorescence anisotropy) was 210 ± 20 nM and the “affinity (double reciprocal plot)” value (yeast 80S ribosomes; 25 °C, ligand 1 μM, excitation/emission 305/420 nm) was 4.8 × 10 ^6 M^−1. For the same molecule, the Kd (yeast 80S ribosomes; purified yeast ribosomes, discussion value) was about 200 nM, the Kd ([4]; ITC, 25.0 °C, 10 mM sodium phosphate pH 7.4) was 1000 ± 100 nM and the “Ka × 10^5” value ([4]; ITC, 25.0 °C, 10 mM sodium phosphate pH 7.4, single site model) was 9.9 ± 0.5 10^5 M^−1. The TΔS ([4]; ITC, 25.0 °C) was -7.1 kcal/mol, the ΔG ([4]; ITC, 25.0 °C) was -8.0 kcal/mol and the ΔH ([4]; ITC, 25.0 °C) was -15.1 kcal/mol. It also gave a TΔS [4, 5] of -7.1 ± 0.2 kcal/mol, a ΔG [4, 5] of -8.0 ± 0.2 kcal/mol and a ΔH [4, 5] of -15.1 ± 0.2 kcal/mol. It also gave a stoichiometry n ([4]; ITC, per monomeric unit of ATA (Mw 422.34) or per dichlorohexamer (Mw 956)) of 1.0 ±0.0, a ΔΔG ([4]; chlorinated hexamer versus heterogeneous polymeric ATA, HSA binding) of 0.4 kcal/mol and an IC50 [3] of 0.108 µM. The inhibition of translation [2] was about 100%, the inhibition of translation ([2]; signal comparable to background) was “completely inhibited translation” and the EC50 [2] was 28.1 µM.
